Reference: patent publication US7807690B2, “2,3-dihydro-iminoisoindole derivatives” (Eisai R&D Management Co., Ltd., priority 2007, dated 2010)
Structures can show the parent of a compound that is named as a salt.

Molecular target: T1, human clotting factor VIIa (Homo sapiens, UniProt P08709)
T1 construct: a human clotting factor VIIa (hereinafter, “Factor VIIa”) purified sample; purchased Enzyme Research Laboratories HFVIIa
Assay: Inhibiting activity against clotting factor VIIa (chromogenic substrate Spectrozyme FVIIa, TF/Factor VIIa enzyme solution)
Assay type: biochemical
Settings: 10 nmol/L human TF, 5 nmol/L Factor VIIa, room temperature 40 minutes, 405 nm
Protocol: A dimethyl sulfoxide (DMSO) solution was prepared with an invention compound concentration of 10 mmol/L (10 mmol/L compound solution).
One packet of tris-hydroxymethylaminomethane-preset (hereinafter referred to as “Tris preset”)(Product of Sigma Corp., Catalog No. T8293), 8.8 g of sodium chloride (NaCl) and 1 g of bovine serum albumin (hereinafter abbreviated as “BSA”) were dissolved in 1 L of water to prepare a Tris-BSA buffer (100 mmol/L Tris, 0.15 mol/L NaCl, 0.1% BSA, pH 7.4).
The Tris-BSA buffering solution (180 μL) was added to the aforementioned 10 mmol/L compound solution (20 μL). The mixture was provided for a 10-fold dilution series using the aforementioned Tris-BSA buffering solution to prepare solutions with compound concentrations of 1.0 mmol/L, 100, 10, 1, 0.1, 0.01 and 0.001 μmol/L (1.0 mmol-0.001 μmol/L compound solutions).
As a control, a solution was prepared by 10-fold dilution of DMSO with the Tris-BSA buffer (hereinafter referred to as “control 10% solution”).
After dissolving one pack of Tris-Preset, NaCl (8.8 g) and BSA (1 g) in water (approximately 900 mL), a 1 mol/L calcium chloride (CaCl2) aqueous solution (15 mL) and a 1 mg/mL Cephalin aqueous solution (30 mL) were added, and water was added to a total volume of 1 L. To this solution there was added a human tissue factor (hereinafter, “TF”) sample (product of Calbiochem, Catalog No. 612151)(450 μg) to a TF sample concentration of 10 nmol/L, and then a human clotting factor VIIa (hereinafter, “Factor VIIa”) purified sample (product of Enzyme Research Laboratories, Catalog No. HFVIIa)(250 μg) was added to a Factor VIIa purified sample concentration of 5 nmol/L, to prepare an enzyme solution (100 mmol/L Tris-HCl, 0.15 mol/L NaCl, 15 mmol/L CaCl2, 30 μg/mL Cephalin, 1 mg/mL BSA, 10 nmol/L TF, 5 nmol/L Factor VIIa).
To 110 μL of this enzyme solution there was added 15 μL of each of the 1.0-mmol-0.001 μmol/L compound solutions, and then 25 μL of a 1.0 mmol/L synthetic chromogenic substrate solution (Spectrozyme FVIIa, product of American Diagnostica, Catalog No. 217L) was added and the mixture was allowed to stand at room temperature for 40 minutes. The amount of 4-nitroanilide released into the solution was quantified by spectrophotometry (405 nm).
A control […] was used in place of the compound solution for measurement in the same manner as a control.
The enzyme reaction inhibition was determined based on this measurement in the presence of the compounds of the invention from 100 μmol/L to 0.1 nmol/L. The IC50 value of each compound as an index of inhibiting activity against clotting factor VIIa was calculated based on nonlinear regression analysis of the enzyme reaction inhibition at each compound concentration.

T1 sequence (P08709 213-466 limits assumed): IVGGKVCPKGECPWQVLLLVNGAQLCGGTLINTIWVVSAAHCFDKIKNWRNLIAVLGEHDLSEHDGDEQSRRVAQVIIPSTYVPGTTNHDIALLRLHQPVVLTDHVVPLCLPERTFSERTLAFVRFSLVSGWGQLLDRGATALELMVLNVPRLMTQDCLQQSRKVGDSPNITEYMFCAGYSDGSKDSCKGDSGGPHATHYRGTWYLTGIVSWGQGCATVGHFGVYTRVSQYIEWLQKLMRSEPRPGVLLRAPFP
T1 sequence (P08709 61-212 limits assumed): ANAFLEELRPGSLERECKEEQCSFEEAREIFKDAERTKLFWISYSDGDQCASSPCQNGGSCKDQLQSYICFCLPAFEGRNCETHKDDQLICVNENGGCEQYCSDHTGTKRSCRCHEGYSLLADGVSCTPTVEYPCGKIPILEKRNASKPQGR
T1 sequence (P13726 33-295 partner): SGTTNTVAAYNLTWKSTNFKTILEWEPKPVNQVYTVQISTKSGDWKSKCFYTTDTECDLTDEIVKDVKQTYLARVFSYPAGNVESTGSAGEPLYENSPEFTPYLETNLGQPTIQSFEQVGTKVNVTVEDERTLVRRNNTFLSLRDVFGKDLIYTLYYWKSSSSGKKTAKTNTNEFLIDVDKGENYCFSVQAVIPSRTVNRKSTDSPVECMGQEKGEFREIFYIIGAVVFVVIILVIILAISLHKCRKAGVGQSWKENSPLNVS

SMILES	IC50 [nM]
COc1cc(C(Nc2ccc3c(c2)CNC3=N)c2nn(-c3ncsc3C(=O)O)c(=O)[nH]2)c(F)c2c1OCCC2 (single isomer, unassigned) [Example 1]	38
COc1cc(C(Nc2ccc3c(c2)CNC3=N)c2nn(-c3ccsc3C(=O)O)c(=O)[nH]2)cc2c1OCOC2 (single isomer, unassigned) [Example 7]	3
CCc1cc(OCCN(C)C)c(F)c(C(Nc2ccc3c(c2)CNC3=N)c2nn(-c3ncccn3)c(=O)[nH]2)c1 (centres unmarked) [Example 3, 5-{[3-(2-Dimethylaminoethoxy)-5-ethyl-2-fluorophenyl]-(1-imino-2,3-dihydro-1H-isoindol-5-ylamino)methyl}-2-pyrimidin-2-yl-2,4-dihydro-[1,2,4]triazol-3-one Bistrifluoroacetate]	25
COc1cc(C(Nc2ccc3c(c2)CNC3=N)c2nn(-c3ncccc3N)c(=O)[nH]2)cc2c1OCOC2 (single isomer, unassigned) [Example 2, acetate]	13
COc1cc(C(Nc2ccc3c(c2)CNC3=N)c2nn(-c3ncccn3)c(=O)[nH]2)cc2c1OCOC2 (single isomer, unassigned) [Example 5]	20
COc1cc(OCCO)c(F)c(C(Nc2ccc3c(c2)CNC3=N)c2nn(-c3ncsc3C(=O)O)c(=O)[nH]2)c1 (centres unmarked) [Example 6, 4-(3-{[2-Fluoro-3-(2-hydroxyethoxy)-5-methoxyphenyl]-(1-imino-2,3-dihydro-1H-isoindol-5-ylamino)methyl}-5-oxo-4,5-dihydro-[1,2,4]triazol-1-yl)thiazole-5-carboxylic Acid]	123
CCc1cc(OCCO)c(F)c(C(Nc2ccc3c(c2)CNC3=N)c2nn(-c3ncccn3)c(=O)[nH]2)c1 (centres unmarked) [Example 4, 5-{[5-Ethyl-2-fluoro-3-(2-hydroxyethoxy)phenyl]-(1-imino-2,3-dihydro-1H-isoindol-5-ylamino)methyl}-2-pyrimidin-2-yl-2,4-dihydro-[1,2,4]triazol-3-one]	14

Second part, the molecule after the results:

IC50 [nM]	SMILES
42	COc1cc(F)c(C(Nc2ccc3c(c2)CNC3=N)c2nn(-c3nc[nH]c3C(=O)O)c(=O)[nH]2)cc1OC (centres unmarked) [Example 9, 5-{3-[(2-Fluoro-4,5-dimethoxyphenyl)-(1-imino-2,3-dihydro-1H-isoindol-5-ylamino)methyl]-5-oxo-4,5-dihydro-[1,2,4]triazol-1-yl}-3H-imidazole-4-carboxylic Acid]
13	COc1cc(OC)c(F)c(C(Nc2ccc3c(c2)CNC3=N)c2nn(-c3ccccc3[N+](=O)[O-])c(=O)[nH]2)c1 (centres unmarked) [Example 14, 5-[(2-Fluoro-3,5-dimethoxyphenyl)-(1-imino-2,3-dihydro-1H-isoindol-5-ylamino)methyl]-2-(2-nitrophenyl)-2,4-dihydro-[1,2,4]triazol-3-one trifluoroacetate]
15	CCc1cc(OCCN(C)C)c(F)c(C(Nc2ccc3c(c2)CNC3=N)c2nn(-c3ccccc3N)c(=O)[nH]2)c1 (centres unmarked) [Example 8, 2-(2-Aminophenyl)-5-{[3-(2-dimethylaminoethoxy)-5-ethyl-2-fluorophenyl]-(1-imino-2,3-dihydro-1H-isoindol-5-ylamino)methyl}-2,4-dihydro-[1,2,4]triazol-3-one bistrifluoroacetate]
4	COc1cc(F)c(C(Nc2ccc3c(c2)CNC3=N)c2nn(-c3ccccc3C(=O)O)c(=O)[nH]2)cc1OC (centres unmarked) [Example 13, 2-{3-[(2-Fluoro-4,5-dimethoxyphenyl)-(1-imino-2,3-dihydro-1H-isoindol-5-ylamino)methyl]-5-oxo-4,5-dihydro-[1,2,4]triazol-1-yl}benzoic Acid Trifluoroacetate]
163	COc1cc(F)c(C(Nc2ccc3c(c2)CNC3=N)c2nn(-c3cccc[n+]3[O-])c(=O)[nH]2)cc1OC (centres unmarked) [Example 12, 5-[(2-Fluoro-4,5-dimethoxyphenyl)-(1-imino-2,3-dihydro-1H-isoindol-5-ylamino)methyl]-2-(1-oxypyridin-2-yl)-2,4-dihydro-[1,2,4]triazol-3-one]
3	CCc1cc(OCCO)c(F)c(C(Nc2ccc3c(c2)CNC3=N)c2nn(-c3ncccc3N)c(=O)[nH]2)c1 (single isomer, unassigned) [Example 16, Acetate]
2	CCc1cc(OCCO)c(F)c(C(Nc2ccc3c(c2)CNC3=N)c2nn(-c3ccsc3C(=O)O)c(=O)[nH]2)c1 (single isomer, unassigned) [Example 17]
242	COc1cc(OCCO)c(F)c(C(Nc2ccc3c(c2)CNC3=N)c2nn(-c3ncoc3C(=O)O)c(=O)[nH]2)c1 (centres unmarked) [Example 11, 4-(3-{[2-Fluoro-3-(2-hydroxyethoxy)-5-methoxyphenyl]-(1-imino-2,3-dihydro-1H-isoindol-5-ylamino)methyl}-5-oxo-4,5-dihydro-[1,2,4]triazol-1-yl)oxazole-5-carboxylic acid]
12	COc1cc(F)c(C(Nc2ccc3c(c2)CNC3=N)c2nn(-c3ccccc3N)c(=O)[nH]2)cc1OC (single isomer, unassigned) [Example 10, acetate]
207	COc1cc(F)c(C(Nc2ccc3c(c2)CNC3=N)c2nn(-c3n[nH]cc3C(=O)O)c(=O)[nH]2)cc1OC (centres unmarked) [Example 15, 3-{3-[(2-Fluoro-4,5-dimethoxyphenyl)-(1-imino-2,3-dihydro-1H-isoindol-5-ylamino)methyl]-5-oxo-4,5-dihydro-[1,2,4]triazol-1-yl}-1H-pyrazole-4-carboxylic Acid]
